Data reported in patent publication US20100034772A1, “COMPOSITIONS AND METHODS FOR IMMUNOTHERAPY” (priority 2006, published 2010).
“Also recorded” adds a separate entry of the source.

Experiments:
[1] = tested on: NK cells / Ge-con target cells; experiment: 51Chromium release assay: lysis of Ge-con melanoma target cells by isolated NK cells; format: cell-based, human
From the text: Human effector cells were obtained from the peripheral blood of healthy voluntary laboratory co-workers by density gradient centrifugation on Biocoll separating solution (Biochrom). NK cells were isolated from peripheral blood mononuclear cells (PBMC) by magnetic cell sorting (MACS) using a negative selection kit (NK cell isolation Kit II, 130-091-152; Miltenyi Biotec, Bergisch-Gladbach, Germany). The kit contains a cocktail of antibodies against CD3, CD4, CD14, CD15, CD19, CD36, CD123, and CD235a. […] NK cells enriched by MACS were cultured in 24-well plates for tissue culture (Sarstedt) at a density of 2×10^6 cells/ml. To some cultures 2 μg/ml recombinant HSP70, recombinant HSC70, or the HSP70-derived peptide TKD (Bachem, Bubendorf, Switzerland) were added.
Target cells were labeled by incubating 1×10^6 cells in 200 μl HEPES-buffered DMEM containing 100 μl FCS and 50 μCi Na2^51CrO4 (ICN Biomedicals, Eschwege, Germany) for 1 h at 37° C. and washed three times with HEPES-buffered DMEM. […] Spontaneous release was determined by incubation of target cells in the absence of effector cells. The micro titer plates were centrifuged for 5 min at 40×g and incubated at 37° C. for 4 h before being centrifuged again and supernatant and sediment were separately taken to determine radioactivity in each well using a Wallac MicroBeta Trilux counter (PerkinElmer Life Sciences, Köln, Germany).

[2] = tested on: Ge-con and Ge-Hsp70 melanoma cells; experiment: Flow cytometry of cell surface MICA/B, NKG2D ligands and HSP70 on Ge melanoma cells after histone deacetylase inhibitor; format: cell-based, human; settings: FIG. 9A; for HSP70 cell surface expression on Ge cells after histone deacetylase inhibitor treatment: SAHA 10 μM, 20 h, mAb RPN 1197; for MICA/B cell surface expression on Ge-con and Ge-Hsp70 cells: histone deacetylase inhibitor treatment (SAHA 10 μM, 20 h)
Protocol: (§1) The human melanoma cell line Ge, the Ge-Hsp70 and Ge-con sublines derived therefrom (clones Ge-Hsp70-A, Ge-Hsp70-C, Ge-TCR-C, and Ge-GFP-B) (15), mouse fibroblast L cells, and transfected L cells were maintained in NaHCO3-buffered DMEM supplemented with 10% FCS (Biochrom, Berlin, Germany), 2 mM L-glutamine, 1 mM sodium pyruvate, 50 μM 2-mercaptoethanol and antibiotics (100 U/ml penicillin, 100 μg/ml streptomycin) (Sigma) in Petri dishes for tissue culture (Sarstedt, Nümbrecht, Germany) at 37° C. in a 10% CO2 atmosphere. Human erythroleukemia K562 and mouse lymphoma YAC-1 cells were maintained under the same conditions in Petri dishes for suspension cells (Sarstedt). […] L cells were co-transfected by electroporation with 30 μg of the cosmid A158 (25) containing the MIC3 gene of the rhesus macaque (Macaca mulatta) which is orthologous to human MICA, and with 1 μg of the dsRED vector (Clontech, Mountain View, USA), which confers resistance to geneticin (Invitrogen, Karlsruhe, Germany). After selection with geniticin (1 mg/ml) stable clones were established by limiting dilution, tested for presence of the cosmid by PCR using specific primers (5′-GCT TGC ATT CCC TCC AGG A-3′ (SEQ ID NO: 1) and 5′-TGGACCCTCTGCAGCTGATGT-3′ (SEQ ID NO: 2), length of specific PCR product 1396 bp). MICA mRNA expression was analyzed by Northern blot and cell surface expression by flow cytometry. Four independent clones were tested as target cells for human and rhesus lymphokine-activated killer (LAK) cells with similar results, confirming that MICA expression confers susceptibility to LAK cells. Clone K43 (L-MICA) was selected for the further studies.
Flow cytometry was done on a FACScan flow cytometer (Becton Dickinson, Heidelberg, Germany) using CellQuest software. Expression of intracellular HSP70, T cell receptor (TCR) β, and green fluorescent protein (GFP) in Ge-Hsp70 and Ge-con clones, respectively, was controlled regularly by flow cytometry as described before (15). Cell surface expression of HSP70 was examined on propidium iodide negative cells by a monoclonal antibody (mAb) (RPN 1197, mouse IgG1, multimmune, Regensburg, Germany) that has been reported to detect HSP70 on the plasma membrane (28). MICA/B cell surface expression was determined with the mAb BAMO1 reacting with human MICA and MICB (mouse IgG1, Immatics, Tübingen, Germany). […] Intracellular granzyme B expression was analyzed with the mAb B18.1 (mouse IgG1, Alexis Biochemicals, Grünberg, Germany) after permeabilization of the cells with 0.25% saponin as described before for HSP70 (15). […] The percentage of NK cells in the spleens of SCID mice was determined using the pan-NK cell marker DX5 (rat IgM, PE-conjugated, Caltag Laboratories, Hamburg, Germany). […]

[3] = tested on: Ge-con and Ge-Hsp70 melanoma cells; experiment: 51Chromium release assay: lysis of SAHA-treated Ge-con and Ge-Hsp70 cells by LAK cells; format: cell-based, human; settings: target cells 10 μM SAHA 20 h; LAK: PBMC 4 days IL-2 100 U/ml; n=4; p=0.0030, three-way ANOVA; FIG. 9B
Protocol: (§2) The human melanoma cell line Ge, the Ge-Hsp70 and Ge-con sublines derived therefrom (clones Ge-Hsp70-A, Ge-Hsp70-C, Ge-TCR-C, and Ge-GFP-B) (15), mouse fibroblast L cells, and transfected L cells were maintained in NaHCO3-buffered DMEM supplemented with 10% FCS (Biochrom, Berlin, Germany), 2 mM L-glutamine, 1 mM sodium pyruvate, 50 μM 2-mercaptoethanol and antibiotics (100 U/ml penicillin, 100 μg/ml streptomycin) (Sigma) in Petri dishes for tissue culture (Sarstedt, Nümbrecht, Germany) at 37° C. in a 10% CO2 atmosphere. Human erythroleukemia K562 and mouse lymphoma YAC-1 cells were maintained under the same conditions in Petri dishes for suspension cells (Sarstedt). […] MICA mRNA expression was analyzed by Northern blot and cell surface expression by flow cytometry. […]
(§3) Target cells were labeled by incubating 1×10^6 cells in 200 μl HEPES-buffered DMEM containing 100 μl FCS and 50 μCi Na2^51CrO4 (ICN Biomedicals, Eschwege, Germany) for 1 h at 37° C. and washed three times with HEPES-buffered DMEM. […] Spontaneous release was determined by incubation of target cells in the absence of effector cells. […]

[4] = tested on: PBMC; experiment: 51Chromium release assay: lysis of L-MICA / L / K562 target cells by human PBMC or LAK cells stimulated in vitro; format: cell-based; settings: for lysis of L-MICA cells by IL-2 treated PBMC, additional stimulatory effect of recombinant protein: PBMC cultured 7 days with IL-2 (100 U/ml) plus 2 μg/ml protein, compared with IL-2 only, FIG. 7A
Protocol: as §1
(§4) Splenocytes from SCID mice were obtained using a Tenbroeck homogeniser and erythrocytes were removed by incubation for 5 min in lysis buffer (155 mM NH4Cl, 10 mM KHCO3, 0.1 mM EDTA, pH 7.4-7.8). Afterwards the cells were used either directly as cytotoxic effector cells or cultured for 24 h in DMEM with 10% FCS and 20% supematant from concanavalin A stimulated lymphocytes before being used in ^51Chromium release assays. Human effector cells were obtained from the peripheral blood of healthy voluntary laboratory co-workers by density gradient centrifugation on Biocoll separating solution (Biochrom). NK cells were isolated from peripheral blood mononuclear cells (PBMC) by magnetic cell sorting (MACS) using a negative selection kit (NK cell isolation Kit II, 130-091-152; Miltenyi Biotec, Bergisch-Gladbach, Germany). […]
as §3

[5] = tested on: NK cells; experiment: Flow cytometry of NK cell markers and intracellular granzyme B after 5 d culture; format: cell-based, human; settings: IL-2 100 U/ml, TKD 2 μg/ml
Protocol: as §4, with “Germany). The kit contains a cocktail of antibodies against CD3, CD4, CD14, CD15, CD19, CD36, CD123, and CD235a. To obtain LAK cells the PBMC were cultured for 4 to 7 days in 5-ml Petri dishes for tissue culture (Sarstedt) at a density of 5 to 10×10^6 cells/ml in DMEM supplemented with 100 U/ml IL-2 (Proleukin, Chiron, Amsterdam, Netherlands). NK cells enriched by MACS were cultured in 24-well plates for tissue culture (Sarstedt) at a density of 2×10^6 cells/ml. To some cultures 2 μg/ml recombinant HSP70, recombinant HSC70, or the HSP70-derived peptide TKD (Bachem, Bubendorf, Switzerland) were added.” for “Germany).”
Flow cytometry was done on a FACScan flow cytometer (Becton Dickinson, Heidelberg, Germany) using CellQuest software. […] MICA/B cell surface expression was determined with the mAb BAMO1 reacting with human MICA and MICB (mouse IgG1, Immatics, Tübingen, Germany). […] Intracellular granzyme B expression was analyzed with the mAb B18.1 (mouse IgG1, Alexis Biochemicals, Grünberg, Germany) after permeabilization of the cells with 0.25% saponin as described before for HSP70 (15). […] The percentage of NK cells in the spleens of SCID mice was determined using the pan-NK cell marker DX5 (rat IgM, PE-conjugated, Caltag Laboratories, Hamburg, Germany). […]

[6] = tested on: NK cells; settings: shown before (27); cited from earlier work
[7] = tested on: NK cells; experiment: 51Chromium release assay: lysis of L-MICA target cells by MACS-isolated NK cells or NK cell depleted PBMC; format: cell-based, human
Protocol: as §2, §3

O=C(CCCCCCC(=O)Nc1ccccc1)NO [SAHA, suberoylanilide hydroxyamic acid]
susceptibility of Ge target cells to NK cells after SAHA treatment ([1]; target cells 10 μM SAHA 20 h, p<0.0001, three-way ANOVA, effector:target 2.5:1 and 1.25:1): augmented their susceptibility to NK cells | HSP70 cell surface expression on Ge cells after histone deacetylase inhibitor treatment [2]: not found | MICA/B cell surface expression on Ge-con and Ge-Hsp70 cells [2]: induced | susceptibility of treated Ge-con and Ge-Hsp70 cells to lysis by LAK cells versus untreated cells [3]: significantly more susceptible to lysis by LAK cells than untreated cells; also recorded: lysed signifcantly better than untreated cells

CC(/C=C/C(=O)NO)=C\[C@@H](C)C(=O)c1ccc(N(C)C)cc1 [trichostatin A]
HSP70 cell surface expression on Ge cells after histone deacetylase inhibitor treatment [2]: not found | MICA/B cell surface expression on Ge-con and Ge-Hsp70 cells [2]: induced

HSC70: His-tagged recombinant constitutively expressed HSC70 from the rat Hsc70 gene, produced in E. coli
lysis of L-MICA cells by IL-2 treated PBMC, additional stimulatory effect of recombinant protein [4]: but not HSC70 was able to further activate PBMC to kill MICA expressing target cells

HSP70: His-tagged recombinant stress-inducible HSP70 protein derived from the rat Hsp70-1 gene, produced in E. coli
capacity of LAK cells to kill L-MICA cells ([4]; 7 days IL-2 (100 U/ml) plus HSP70 (2 μg/ml), tested in parallel with LPS (10 ng/ml), 6 experiments, p=0.0374, FIG. 7B): significantly increased | lysis of L-MICA cells by IL-2 treated PBMC, additional stimulatory effect of recombinant protein [4]: further increased lysis of the L-MICA cells

TKDNNLLGRFELSG
lysis of L-MICA cells by PBMC stimulated with IL-2 and TKD versus IL-2 only ([4]; 7 days, IL-2 100 U/ml, TKD 2 μg/ml, p=0.0012, FIG. 7C): lysed L-MICA cells significantly better | capability of NK cells to lyse Ge-con target cells after stimulation ([1]; NK cells 5 days IL-2 (100 U/ml) plus TKD (2 μg/ml) versus IL-2, TKD p=0.0055, three-way ANOVA, effector:target 2.5:1 and 1.25:1): increased their capability to lyse target cells | killing of Ge-con target cells: combination of TKD treatment of NK cells and SAHA treatment of target cells ([1]; TKD 2 μg/ml plus IL-2 5 days, SAHA 10 μM 20 h, interaction p=0.0003, especially at lower effector:target ratios, FIG. 10B): acted synergistically | mean fluorescence intensity of NKG2D and CD94, IL-2 and TKD versus IL-2 alone [5]: no significant difference was detectable | intracellular granzyme B expression, IL-2 plus TKD versus IL-2 alone ([5]; 5 experiments, FIG. 10D): tendency towards increased expression | percentage of CD56 positive NK cells, IL-2 plus TKD versus IL-2 ([5]; FIG. 10C): no difference was observed | ability to stimulate NK cells to lyse HSP70 cell surface positive target cells [6]: equivalent to the full length HSP70 | killing of L-MICA cells by stimulated NK cell depleted PBMC ([7]; NK cell depleted PBMC, 5 days IL-2 (100 U/ml) or IL-2 plus TKD (2 μg/ml), effector:target ratios up to 200:1, FIG. 8B): did not result in a cell population that was able to kill L-MICA cells | activity of the NK cells against L-MICA cells ([7]; NK cell enriched fraction, 5 days IL-2 (100 U/ml) plus TKD (2 μg/ml) versus IL-2, 7 experiments, p<0.0001, FIG. 8C): significantly improve
